How the values were obtained:
[1] = system: Serratia marcescens; assay: serial broth dilution test, growth inhibition; assay type: cell-based; conditions: nutrient broth, incubated at 37° C. for 2 days, examined for presence of growth
Experimental: (§1) Grove and W. A. Randall in "Assay Methods of Antibiotics", Med. Encycl. Inc., New York, 1955.
(§2) For example, by employing a test like the serial broth dilution, see Grove and Randall, cited above, in which dilutions of the compounds of this invention in nutrient broth are inoculated with the microorganisms or fungi, described above, incubated at 37° C. for 2 days, respectively, and examined for the presence of growth, it may be shown that isomers L and M of cyclo-[N-[1-(1-methylethyl)-2-cyclohexylamino-2-oxo-ethyl]-alanyl-phenylalanyl-valylglycyl-leucyl-methionyl] (described in Example 2) are able to inhibit growth totally in this system of Klebsiella pneumoniae and Serratia marcescens at a concentration of 100/mcg/ml.

[2] = system: Klebsiella pneumoniae; assay: serial broth dilution test, growth inhibition; assay type: cell-based; conditions: nutrient broth, incubated at 37° C. for 2 days, examined for presence of growth
Experimental: as §1, §2

In the case of CSCC[C@@H]1NC(=O)[C@H](CC(C)C)NC(=O)CNC(=O)[C@H](C(C)C)NC(=O)[C@H](Cc2ccccc2)NC(=O)[C@H](C)N(C(C(=O)NC2CCCCC2)C(C)C)C1=O (stereo partly drawn) [isomer L, Cyclo[N-[1-(1-methylethyl)-2-cyclohexylamino-2-oxo-ethyl]-alanyl-phenylalanyl-valyl-glycyl-leucyl-methionyl]], the “concentration able to inhibit growth totally” value [1] is reported as 100 µg/mL and the “concentration able to inhibit growth totally” value [2] is reported as 100 µg/mL.
